# Test results published in patent publication US12064408B2, “Compounds for the treatment of obesity and methods of use thereof” (The Children's Medical Center Corporation, priority 2012, dated 2024).
# B1: leptin: peptide hormone regulating food intake and body weight; injected ip dissolved in saline (protein, UniProt P41160 22-167, looked up)
# Leptin: VPIQKVQDDTKTLIKTIVTRINDISHTQSVSAKQRVTGLDFIPGLHPILSLSKMDQTLAVYQQVLTSLPSQNVLQIANDLENLRDLLHLLAFSKSCSLPQTSGLQKPESLDGVLEASLYSTEVVALSRLQGSLQDILQQLDVSPEC
# Assays:
# [1] = weight loss products; Sources: FDA 2010, Natural Medicines Comprehensive Database 2010; cited from earlier work
# [2] = system: mice; test: Locomotor activity (Columbus Instruments Comprehensive Lab Animal Monitoring System); format: in vivo
# Experimental: Locomotor activity was also normal in celastrol-treated mice. This is consistent with celastrol not having a toxic effect causing anorexia and weight loss, since the latter would be associated with decreased locomotor activity.
# FIGS. 16A and 16B are graphs showing x (FIG. 16A) and y (FIG. 16B) direction ambulatory motion for control and celastrol in dark and light cycles. Toxicity was evaluated using Columbus Instruments Comprehensive Lab Animal Monitoring System we have measure the locomotor activity of the animals.
# [3] = system: alanine transaminase (ALT); test: Serum ALT by ELISA; format: in vivo; conditions: three weeks 100 μg/kg i.p., HFD-fed obese mice
# Experimental: (§1) To investigate the effect of celastrol administration on liver function, serum levels of alanine transaminase (ALT) and aspartate transaminase (AST) were measured in mice following three weeks of celastrol treatment (100 μg/kg, i.p.). ALT and AST were measured using an enzyme-linked immunosorbent assay (ELISA) kit (from Bio Scientific).
# [4] = system: aspartate transaminase (AST); test: Serum AST by ELISA; format: in vivo; conditions: three weeks 100 μg/kg i.p., HFD-fed obese mice
# Experimental: as §1
# [5] = system: HFD-fed obese mice; test: Liver and kidney histology (H&E); format: in vivo; conditions: three weeks 100 μg/kg i.p.
# [6] = system: lean mice; test: Leptin injection upon acute celastrol treatment, lean mice; format: in vivo; conditions: 6-hour time point, leptin 10 mg/kg ip, DMSO or celastrol 100 μg/kg ip pre-treatment
# Experimental: (§2) It was therefore hypothesized that celastrol exerts anti-obesity effects through increasing leptin sensitivity in the brains of the HFD-fed obese mice. To test this hypothesis, leptin was administered to celastrol- or vehicle-treated HFD-fed obese animals. To avoid any possible leptin sensitizing effect of weight loss or decreased food intake created by celastrol administration, leptin injections were carried out upon acute celastrol treatment as described below.
# (§3) Lean and HFD-fed obese mice were divided into four groups: 1) DMSO+saline, 2) DMSO+leptin, 3) celastrol+saline, and 4) celastrol+leptin (n=3 per group). Mice were injected (ip) with 100 μg/kg celastrol or vehicle (DMSO) one hour before dark cycle (day zero). 24 hours later, mice were injected for a second time with celastrol or DMSO (day 1), and all animals were then taken to 24 hour-fasting. On day two, at 21 hours of fasting, mice received a final injection of DMSO or celastrol. 30 minutes prior to dark cycle, at 23.5 hour of fasting, mice received a single ip injection of leptin (10 mg/kg, dissolved in saline), or saline. […] 1, 3, 6, 15, and 24-hour food intake and 24-hour body weight changes were recorded (FIG. 7A). […] This is clearly evident when food intake of the celastrol-treated mice is calculated in percent values (FIG. 7B). […]
# [7] = system: HFD-fed obese mice; test: Leptin injection upon acute celastrol treatment, HFD-fed obese mice; format: in vivo
# Experimental: as §2, §3
molecule,measurement,setting,value
[Cr] [Chromium],Safety,[1],Likely safe
Conjugated linoleic acid [Conjugated linoleic acid (CLA)],Safety,[1],Possibly safe
CC1=C(O)C(=O)C=C2C1=CC=C1[C@@]2(C)CC[C@@]2(C)[C@@H]3C[C@](C)(C(=O)O)CC[C@]3(C)CC[C@]12C [celastrol],locomotor activity,[2]; celastrol-treated mice,normal
same,x and y direction ambulatory motion counts,"[2]; dark and light cycles, versus control",not significantly different
same,visible sign of sickness and toxicity,[2]; drug treated mice,do not show any visible sign
same,ALT levels,[3],decreases
same,AST levels,[4],decreases
same,kidney morphology,[5],no detectable change
B1,decrease in food intake upon leptin injection,[6],approximately 40%
same,decrease in food intake upon leptin injection,"[7]; 6-hour time point, leptin 10 mg/kg ip, DMSO or celastrol 100 μg/kg ip pre-treatment",approximately 40%
same,24-hour body weight change,[7]; 24 hour ad libitum feeding period after 24-hour fasting,resistant
